According to US20230250123A1, “GUT MICROBIOTA BIOACTIVATED PDE4 INHIBITOR PRECURSORS” (Giiant Pharma Inc., priority 2020, published 2023):

Columns and labels:
[1] = In vitro rate of glycoside prodrug hydrolysis in feces supernatant, rat; format: in vitro ADME; conditions: 100 µM, 37° C., pH 6.5, 24 hr
Procedure: In vitro rate of glycoside prodrugs hydrolysis. The metabolic stability of prodrug candidates to release the parent PDE4 inhibitor could be assessed in vitro according, but not restricted, to the following protocol: feces were collected overnight on a mixture of dry and wet ice in a metabolic cage. Ten volumes (v/w; 30 mL) of 100 mM phosphate buffer (pH 6.5) were added to 3 g of freshly collected rodent feces. The mixture was homogenized with a Stomacher Circulator 400 (2 × 1 min-cycles at 225 rpm). The mixture was transferred to a 50 mL tubes, centrifuged at 10 000xg for 10 min (4° C.) and the supernatant was passed through a 0.45 µm-filter. In a 96 deep-well plate, 198 µL of feces supernatant were aliquoted in 2 wells per compound. Each compound, including positive control, was tested in duplicate. Then 2 µL of 10 mM stock solution of each test compound were spiked in individual wells (duplicate) at a final concentration of 100 µM and samples were sealed and mixed 30 sec at 1000 rpm using a vortexer. Samples were incubated at 37° C. for the desired time in the Thermomixer with constant agitation (300 rpm). At desired time-point, 25 µL of reaction mixture was added to 225 µL of ice-cold quenching solution (acetonitrile + 0.1% (v/v) formic acid) to stop the bacterial enzymatic activity. The quenched incubates were mixed and centrifuged 10 min at 21 000xg at 4° C. A real t0 (no metabolism, 100% total recovery of unchanged prodrug) was generated by adding 22.5 µL of feces supernatant to 225 µL of ice-cold quenching solution (acetonitrile + 0.1% (v/v) formic acid). Then 2.5 µL of 1 mM solution of each test compounds was added, sealed, mixed thoroughly and centrifuged 10 min at 21 000xg at 4° C. All samples, including analytical standards, were analyzed by LC-MS/MS to measure the concentration of the parent PDE4 inhibitor released and the concentration of the corresponding prodrug remaining. A set criteria of 100% recovery is targeted where the summation of the % of prodrug remaining and the % of parent PDE4 inhibitor released should be 100% with an experimental error tolerance of ± 20%. When prodrugs represented by Formula (I) were incubated 24 hours under the conditions described above using mouse, rat and dog feces, the glycoside prodrugs were hydrolyzed to release the corresponding parent PDE4 inhibitor III (Table 3). As a negative control, when compound 4, 10 and 21 were incubated 24 hours under the conditions described above but in the absence of enzyme activities, using mouse feces extract supernatant inactivated by boiling the supernatant 10 minutes, 100% of the prodrugs were recovered unchanged.

[2] = Bidirectional Caco-2 permeability assay; format: in vitro ADME; conditions: human; Caco-2, 10 µM, apical pH 6.0 / basolateral pH 7.4, average of 2 determinations
Procedure: In vitro glycoside prodrug permeability assessment. The permeability of the glycoside prodrugs were measured using the bidirectional Caco-2 assay. Caco-2 cells were seeded onto permeable polycarbonate supports in 12-well Costar Transwell plates and allowed to grow and differentiate for 21-25 days. On day 24, culture medium (DMEM supplemented with 10% FBS, 1% non-essential amino acids and penicillin/streptomycin) was removed from both sides of the transwell inserts and cells were rinsed with warm HBSS. […] The buffer in the donor chamber (apical side for A-to-B assay, basolateral side for B-to-A assay) was removed and replaced with the working solution (10 µM test article in transport buffer). The plates were then placed at 37° C. under light agitation. At designated time points (30, 60 and 90 min); an aliquot of transport buffer from the receiver chamber was removed and replenished with fresh transport buffer. Samples were quenched with ice-cold CH3CN containing internal standard and then centrifuged to precipitate the protein. Resulting supernatants were further diluted with 50/50 ACN/H2O (H2O only for Atenolol) and submitted for LC/MS/MS analysis. […] Atenolol and propranolol were tested as low and […] permeability references. […] The apparent permeability (Papp, measured in cm/s) of a compound is determined according to the following formula: […]
Where dQ/dt is the net rate of appearance in the receiver compartment, A is the area of the Transwell measured in cm^2 (1.12 cm^2), C0 is the initial concentration of compound added to the donor chamber and 60 is the conversion factor for the minute to second.

SMILES | Prodrug Remaining @ 24 hr (%) [1] | Papp A→B at 10 µM [2]
OC[C@H]1O[C@@H](Oc2ccc(C[C@@H](c3ccc(OC(F)F)c(OC4CC4)c3)c3cnc(C(O)(C(F)(F)F)C(F)(F)F)s3)cn2)[C@H](O)[C@@H](O)[C@@H]1O [Compound 2, (2S,3R,4S,5S,6R)-2-((5-((S)-2-(3-cyclopropoxy-4-(difluoromethoxy)phenyl)-2-(2-(1,1,1,3,3,3-hexafluoro-2-hydroxypropan-2-yl)thiazol-5-yl)ethyl)pyridin-2-yl)oxy)-6-(hydroxymethyl)tetrahydro-2 H-pyran-3,4,5-triol] | 0.5% | 0.07 ×10⁻⁶ cm/s
CC(=O)OC[C@H]1O[C@@H](Oc2ccc(C[C@H](c3ccc(C(C)(C)O)nc3)c3ccc(OC(F)F)c(OC4CC4)c3)cn2)[C@H](OC(C)=O)[C@@H](OC(C)=O)[C@@H]1OC(C)=O [Compound 3, (2R,3R,4S,5R,6S)-2-(acetoxymethyl)-6-((5-((S)-2-(3-cyclopropoxy-4-(difluoromethoxy)phenyl)-2-(6-(2-hydroxypropan-2-yl)pyridin-3-yl)ethyl)pyridin-2-yl)oxy)tetrahydro-2H-pyran-3,4,5-triyl triacetate] | 0.1% | 1.4 ×10⁻⁶ cm/s
COC(=O)[C@H]1O[C@@H](Oc2ccc(C[C@@H](c3ccc(OC(F)F)c(OC4CC4)c3)c3cnc(C(O)(C(F)(F)F)C(F)(F)F)s3)cn2)[C@H](OC(C)=O)[C@@H](OC(C)=O)[C@@H]1OC(C)=O [Compound 6, (2S,3R,4S,5S,6S)-2-((5-((S)-2-(3-cyclopropoxy-4-(difluoromethoxy)phenyl)-2-(2-(1,1,1,3,3,3-hexafluoro-2-hydroxypropan-2-yl)thiazol-5-yl)ethyl)pyridin-2-yl)oxy)-6-(methoxycarbonyl)tetrahydro-2H-pyran-3,4,5-triyl triacetate] | 23% | –
COC(=O)[C@H]1O[C@@H](Oc2ccc(C[C@@H](c3ccc(OC(F)F)c(OC4CC4)c3)c3cnc(C(O)(C(F)(F)F)C(F)(F)F)s3)cn2)[C@H](O)[C@@H](O)[C@@H]1O [Compound 7, (2S,3S,4S,5R,6S)-methyl 6-((5-((S)-2-(3-cyclopropoxy-4-(difluoromethoxy)phenyl)-2-(2-(1,1,1,3,3,3-hexafluoro-2-hydroxypropan-2-yl)thiazol-5-yl)ethyl)pyridin-2-yl)oxy)-3,4,5-trihydroxytetrahydro-2H-pyran-2-carboxylate] | 35% | 1 ×10⁻⁶ cm/s
COC(=O)[C@H]1O[C@@H](Oc2ccc(C[C@H](c3ccc(C(C)(C)O)nc3)c3ccc(OC(F)F)c(OC4CC4)c3)cn2)[C@H](OC(C)=O)[C@@H](OC(C)=O)[C@@H]1OC(C)=O [Compound 8, (2S,3R,4S,5S,6S)-2-((5-((S)-2-(3-cyclopropoxy-4-(difluoromethoxy)phenyl)-2-(6-(2-hydroxypropan-2-yl)pyridin-3-yl)ethyl)pyridin-2-yl)oxy)-6-(methoxycarbonyl)tetrahydro-2H-pyran-3,4,5-triyl triacetate] | – | 0.6 ×10⁻⁶ cm/s
CNC(=O)[C@H]1O[C@@H](Oc2ccc(C[C@@H](c3ccc(OC(F)F)c(OC4CC4)c3)c3cnc(C(O)(C(F)(F)F)C(F)(F)F)s3)cn2)[C@H](O)[C@@H](O)[C@@H]1O [Compound 15, (2S,3S,4S,5R,6S)-methyl 6-((5-((S)-2-(3-cyclopropoxy-4-(difluoromethoxy)phenyl)-2-(2-(1,1,1,3,3,3-hexafluoro-2-hydroxypropan-2-yl)thiazol-5-yl)ethyl)pyridin-2-yl)oxy)-3,4,5-trihydroxytetrahydro-2H-pyran-2-carboxamide] | 74% | 1.5 ×10⁻⁶ cm/s
CC(=O)OC[C@H]1O[C@@H](Oc2ccc(C[C@H](c3ccc(C(C)(C)O)nc3)c3ccc(OC(F)F)c(OC4CC4)c3)cn2)[C@H](OC(C)=O)[C@@H](OC(C)=O)[C@H]1OC(C)=O [Compound 17, (2R,3S,4S,5R,6S)-2-(acetoxymethyl)-6-((5-((S)-2-(3-cyclopropoxy-4-(difluoromethoxy)phenyl)-2-(6-(2-hydroxypropan-2-yl)pyridin-3-yl)ethyl)pyridin-2-yl)oxy)tetrahydro-2H-pyran-3,4,5-triyl triacetate] | 0.0% | –
CC(C)(O)c1ccc([C@@H](Cc2ccc(O[C@@H]3O[C@H](CO)[C@H](O)[C@H](O)[C@H]3O)nc2)c2ccc(OC(F)F)c(OC3CC3)c2)cn1 [Compound 18, (2S,3R,4S,5R,6R)-2-((5-((S)-2-(3-cyclopropoxy-4-(difluoromethoxy)phenyl)-2-(6-(2-hydroxypropan-2-yl)pyridin-3-yl)ethyl)pyridin-2-yl)oxy)-6-(hydroxymethyl)tetrahydro-2H-pyran-3,4,5-triol] | 0.0% | 0.1 ×10⁻⁶ cm/s
CC(=O)OC[C@H]1O[C@H](Oc2ccc(C[C@H](c3ccc(C(C)(C)O)nc3)c3ccc(OC(F)F)c(OC4CC4)c3)cn2)[C@@H](OC(C)=O)[C@@H](OC(C)=O)[C@@H]1OC(C)=O [Compound 19, (2R,3R,4S,5S,6R)-2-(acetoxymethyl)-6-((5-((S)-2-(3-cyclopropoxy-4-(difluoromethoxy)phenyl)-2-(6-(2-hydroxypropan-2-yl)pyridin-3-yl)ethyl)pyridin-2-yl)oxy)tetrahydro-2H-pyran-3,4,5-triyl triacetate] | 0.7% | –
CC(C)(O)c1ccc([C@@H](Cc2ccc(O[C@H]3O[C@H](CO)[C@@H](O)[C@H](O)[C@@H]3O)nc2)c2ccc(OC(F)F)c(OC3CC3)c2)cn1 [Compound 20, (2R,3S,4S,5S,6R)-2-((5-((S)-2-(3-cyclopropoxy-4-(difluoromethoxy)phenyl)-2-(6-(2-hydroxypropan-2-yl)pyridin-3-yl)ethyl)pyridin-2-yl)oxy)-6-(hydroxymethyl)tetrahydro-2H-pyran-3,4,5-triol] | 0.0% | 0.2 ×10⁻⁶ cm/s
CN(C)[C@H]1[C@H](Oc2ccc(C[C@@H](c3ccc(OC(F)F)c(OC4CC4)c3)c3cnc(C(O)(C(F)(F)F)C(F)(F)F)s3)cn2)O[C@H](CO)[C@@H](O)[C@@H]1O [Compound 27, (2R,3S,4R,5R,6S)-6-((5-((S)-2-(3-cyclopropoxy-4-(difluoromethoxy)phenyl)-2-(2-(1,1,1,3,3,3-hexafluoro-2-hydroxypropan-2-yl)thiazol-5-yl)ethyl)pyridin-2-yl)oxy)-5-(dimethylamino)-2-(hydroxymethyl)tetrahydro-2H-pyran-3,4-diol] | 93% | 2.4 ×10⁻⁶ cm/s
CC(=O)OC[C@H]1O[C@@H](O[C@H]2[C@H](OC(C)=O)[C@@H](OC(C)=O)[C@H](Oc3ccc(C[C@H](c4ccc(C(C)(C)O)nc4)c4ccc(OC(F)F)c(OC5CC5)c4)cn3)O[C@@H]2COC(C)=O)[C@H](OC(C)=O)[C@@H](OC(C)=O)[C@@H]1OC(C)=O [Compound 30, (2R,3R,4S,5R,6S)-2-(acetoxymethyl)-6-(((2R,3R,4S,5R,6S)-4,5-diacetoxy-2-(acetoxymethyl)-6-((5-((S)-2-(3-cyclopropoxy-4-(difluoromethoxy)phenyl)-2-(6-(2-hydroxypropan-2-yl)pyridin-3-yl)ethyl)pyridin-2-yl)oxy)tetrahydro-2H-pyran-3-yl)oxy)tetrahydro-2H-pyran-3,4,5-triyl triacetate] | 10% | 0.5 ×10⁻⁶ cm/s
